pIC50: −log10 of the molar value.
Target: T1, Neutrophil elastase (Homo sapiens, UniProt P08246)
T1 sequence (P08246 whole entry): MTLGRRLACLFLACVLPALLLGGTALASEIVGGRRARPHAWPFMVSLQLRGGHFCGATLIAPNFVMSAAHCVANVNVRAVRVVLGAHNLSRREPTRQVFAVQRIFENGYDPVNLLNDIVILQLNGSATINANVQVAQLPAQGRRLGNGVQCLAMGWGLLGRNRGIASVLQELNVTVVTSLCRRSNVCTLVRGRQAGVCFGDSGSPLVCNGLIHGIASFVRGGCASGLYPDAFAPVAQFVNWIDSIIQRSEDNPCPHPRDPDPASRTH
Assay: Human Neutrophil Elastase Assay: Compound buffer: 100 mM Tris, 500 mM NaCl, adjusted to pH 7.5; Assay buffer: 100 mM Tris, 500 mM NaCl, adjusted to pH 7.5, containing 0.01% BSA. Test compounds were prediluted in DMSO and subsequently in compound buffer (5% DMSO final). […] After inactivation of the enzyme, fluorescence intensities were measured at 380 nm excitation and 460 nm emission wavelengths.

pIC50 | Structure (SMILES)
7.55 | Cc1c(-c2cccc(C(F)(F)F)c2)c(=O)c(C(=O)NCc2ccc(S(C)(=O)=O)s2)cn1C(C)C
7.57 | Cc1c(-c2cccc(C(F)F)c2)c(=O)c(C(=O)NCc2ccc(S(C)(=O)=O)cc2)cn1C1CCOC1 (configuration not stated)

Source: ChEMBL document CHEMBL3886714, “Substituted 4-pyridones and their use as inhibitors of neutrophil elastase activity” (2016)
